The text below walks through data of patent US20090093469A1, “Phenylaminopropanol Derivatives and Methods of Their Use” (WYETH, priority 2004, published 2009).

Where a name gives a salt, the structure may show the parent alone.

T1 sequence (P23975 whole entry): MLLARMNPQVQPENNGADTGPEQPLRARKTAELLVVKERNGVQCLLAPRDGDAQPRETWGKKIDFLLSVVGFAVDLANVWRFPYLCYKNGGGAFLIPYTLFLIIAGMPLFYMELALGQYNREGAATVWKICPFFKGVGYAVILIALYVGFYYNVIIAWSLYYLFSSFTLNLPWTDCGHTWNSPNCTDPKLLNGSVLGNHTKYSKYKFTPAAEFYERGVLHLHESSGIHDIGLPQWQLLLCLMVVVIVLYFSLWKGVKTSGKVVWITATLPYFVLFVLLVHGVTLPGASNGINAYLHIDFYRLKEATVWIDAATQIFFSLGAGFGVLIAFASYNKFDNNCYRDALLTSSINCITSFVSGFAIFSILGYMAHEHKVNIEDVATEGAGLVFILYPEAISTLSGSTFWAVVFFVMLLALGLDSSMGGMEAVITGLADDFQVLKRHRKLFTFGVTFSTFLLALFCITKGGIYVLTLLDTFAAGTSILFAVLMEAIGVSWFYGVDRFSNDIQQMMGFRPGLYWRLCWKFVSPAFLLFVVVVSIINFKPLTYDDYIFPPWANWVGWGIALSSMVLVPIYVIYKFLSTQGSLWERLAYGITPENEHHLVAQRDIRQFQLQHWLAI

One experiment concerns the target T1, hNET (Homo sapiens, UniProt P23975).
T1 construct: expressed in transfected cells
The experiment in a line: Norepinephrine (NE) uptake assay in MDCK-Net6 cells stably transfected with human hNET. Type of experiment: cell-based. The conditions noted are these: MDCK-Net6, read-out: % Inhibition @ 1 μM (hNET).
Broadly, the inhibition is the relative decrease from the control value, in per cent. Consider `CNC[C@@H](O)[C@H](c1cccc(F)c1)n1ccc2c(Br)cccc21` [Example 125, (1S,2R)-1-(4-bromo-1H-indol-1-yl)-1-(3-fluorophenyl)-3-(methylamino)propan-2-ol hydrochloride], for which the inhibition at 1 µM came out at 94.3%.

As to `CNC[C@@H](O)[C@H](c1cccc(F)c1)n1ccc2cc(Br)ccc21` [Example 127, (1S,2R)-1-(5-bromo-1H-indol-1-yl)-1-(3-fluorophenyl)-3-(methylamino)propan-2-ol hydrochloride], the inhibition at 1 µM was 95.7%.

For the compound `CNC[C@@H](O)[C@H](c1cccc(F)c1)n1ccc2ccc(Br)cc21` [Example 132, (1S,2R)-1-(6-bromo-1H-indol-1-yl)-1-(3-fluorophenyl)-3-(methylamino)propan-2-ol hydrochloride], the inhibition at 1 µM is 93%.

`CNC[C@@H](O)[C@H](c1cccc(F)c1)n1ccc2ccc(F)cc21` [Example 133, (1S,2R)-1-(6-fluoro-1H-indol-1-yl)-1-(3-fluorophenyl)-3-(methylamino)propan-2-ol hydrochloride]: the inhibition at 1 µM is 96.4%.

Regarding `CNC[C@@H](O)[C@H](c1cccc(F)c1)n1ccc2cccc(Br)c21` [Example 135, (1S,2R)-1-(7-bromo-1H-indol-1-yl)-1-(3-fluorophenyl)-3-(methylamino)propan-2-ol hydrochloride], the inhibition at 1 µM came out at 99.5%.

Take `CNC[C@@H](O)[C@H](c1cccc(C(F)(F)F)c1)n1ccc2ccccc21` [Example 136, (1S,2R)-1-(1H-indol-1-yl)-3-(methylamino)-1-[3-(trifluoromethyl)phenyl]propan-2-ol hydrochloride]: the inhibition at 1 µM was found to be 97%.

For the compound `CNC[C@H](O)[C@H](c1cccc(F)c1)n1ccc2ccccc21` [Example 139, (1S,2S)-1-(3-fluorophenyl)-1-(1H-indol-1-yl)-3-(methylamino)propan-2-ol hydrochloride], the inhibition at 1 µM turned out to be 94.9%.

As for `CNC[C@@H](O)[C@H](c1cccc(F)c1)n1cc(C)c2ccccc21` [Example 143, (1S,2R)-1-(3-fluorophenyl)-3-(methylamino)-1-(3-methyl-1H-indol-1-yl)propan-2-ol hydrochloride], the inhibition at 1 µM is 96.8%.

On to `CNC[C@@H](O)[C@H](c1cccc(F)c1)n1ccc2cccc(Cl)c21` [Example 149, (1S,2R)-1-(7-chloro-1H-indol-1-yl)-1-(3-fluorophenyl)-3-(methylamino)propan-2-ol hydrochloride], for which the inhibition at 1 µM was determined as 100%.

Take `CNC[C@@H](O)[C@H](c1cccc(F)c1)n1ccc2c(Cl)cccc21` [Example 150, (1S,2R)-1-(4-chloro-1H-indol-1-yl)-1-(3-fluorophenyl)-3-(methylamino)propan-2-ol hydrochloride]: the inhibition at 1 µM came to 98.3%.

As to `CNC[C@@H](O)[C@H](c1cccc(F)c1)n1ccc2ccc(Cl)cc21` [Example 151, (1S,2R)-1-(6-chloro-1H-indol-1-yl)-1-(3-fluorophenyl)-3-(methylamino)propan-2-ol hydrochloride], the inhibition at 1 µM stood at 94.3%.

Take `CNC[C@@H](O)[C@H](c1ccccc1)n1ccc2cc(Cl)ccc21` [Example 152, (1S,2R)-1-(5-chloro-1H-indol-1-yl)-3-(methylamino)-1-phenylpropan-2-ol hydrochloride]: the inhibition at 1 µM was 96.2%.

Regarding `CNC[C@@H](O)[C@H](c1cccc(F)c1)n1ccc2cc(Cl)ccc21` [Example 153, (1S,2R)-1-(5-chloro-1H-indol-1-yl)-1-(3-fluorophenyl)-3-(methylamino)propan-2-ol hydrochloride], the inhibition at 1 µM worked out at 97.4%.

Staying with this experiment, now noted: test compound 1 μM; [3H]NE uptake, MDCK-Net6 cells; read-out: % Inhibition @ 1 μM (hNET).
With `CNC[C@@H](O)[C@H](c1ccccc1)n1cc(C)c2cccc(Cl)c21` [Example 122, (1S,2R)-1-(7-chloro-3-methyl-1H-indol-1-yl)-3-(methylamino)-1-phenylpropan-2-ol hydrochloride], the inhibition at 1 µM is 97.4%.

For the compound `CNC[C@@H](OC)[C@H](c1ccccc1)n1cc(C)c2cc(F)ccc21` [Example 123, [(2R,3S)-3-(5-fluoro-3-methyl-1H-indol-1-yl)-2-methoxy-3-phenylpropyl]methylamine hydrochloride], the inhibition at 1 µM is 65%.

As for `CNC[C@@H](O)[C@H](c1ccccc1)n1ccc2c(Br)cccc21` [Example 124, (1S,2R)-1-(4-bromo-1H-indol-1-yl)-3-(methylamino)-1-phenylpropan-2-ol hydrochloride], the inhibition at 1 µM stood at 91.5%.

For the compound `CNC[C@@H](O)[C@H](c1ccccc1)n1ccc2cc(Br)ccc21` [Example 126, (1S,2R)-1-(5-bromo-1H-indol-1-yl)-3-(methylamino)-1-phenylpropan-2-ol hydrochloride], the inhibition at 1 µM was 92.9%.

For the compound `CNC[C@@H](O)[C@H](c1ccccc1)n1ccc2c(C#N)cccc21` [Example 128, 1-[(1S,2R)-2-hydroxy-3-(methylamino)-1-phenylpropyl]-1H-indole-4-carbonitrile hydrochloride], the inhibition at 1 µM was found to be 45.6%.

Turning to `CNC[C@@H](O)[C@H](c1ccccc1)n1ccc2ccc(Br)cc21` [Example 129, (1S,2R)-1-(6-bromo-1H-indol-1-yl)-3-(methylamino)-1-phenylpropan-2-ol hydrochloride], the inhibition at 1 µM was determined as 71.8%.

For `CNC[C@@H](O)[C@H](c1ccccc1)n1ccc2cc(C#N)ccc21` [Example 130, 1-[(1S,2R)-2-hydroxy-3-(methylamino)-1-phenylpropyl]-1H-indole-5-carbonitrile hydrochloride], the inhibition at 1 µM amounted to 76%.

Regarding `CNC[C@@H](O)[C@H](c1cccc(F)c1)n1ccc2c(C#N)cccc21` [Example 131, 1-[(1S,2R)-1-(3-fluorophenyl)-2-hydroxy-3-(methylamino)propyl]-1H-indole-4-carbonitrile hydrochloride], the inhibition at 1 µM came out at 63.1%.

For the compound `NC[C@@H](O)[C@H](c1cccc(F)c1)n1ccc2ccccc21` [Example 134, (1S,2R)-3-amino-1-(3-fluorophenyl)-1-(1H-indol-1-yl)propan-2-ol hydrochloride], the inhibition at 1 µM was found to be 68.5%.

For the compound `CNC[C@@H](O)[C@H](c1cccc(C(F)(F)F)c1)N1CCc2ccccc21` [Example 138, (1S,2R)-1-(2,3-dihydro-1H-indol-1-yl)-3-(methylamino)-1-[3-(trifluoromethyl)phenyl]propan-2-ol hydrochloride], the inhibition at 1 µM amounted to 97.9%.

As to `CNC[C@@H](O)[C@H](c1ccc(F)c(F)c1)n1ccc2ccccc21` [Example 140, (1S,2R)-1-(3,4-difluorophenyl)-1-(1H-indol-1-yl)-3-(methylamino)propan-2-ol hydrochloride], the inhibition at 1 µM came to 96.7%.

Take `CNC[C@@H](O)[C@H](c1ccccc1)n1ccc2c(Cl)cccc21` [Example 146, (1S,2R)-1-(4-chloro-1H-indol-1-yl)-3-(methylamino)-1-phenylpropan-2-ol hydrochloride]: the inhibition at 1 µM amounted to 97.1%.

`CNC[C@@H](O)[C@H](c1ccccc1)n1ccc2ccc(Cl)cc21` [Example 147, (1S,2R)-1-(6-chloro-1H-indol-1-yl)-3-(methylamino)-1-phenylpropan-2-ol hydrochloride]: the inhibition at 1 µM is 91.7%.

`CNC[C@@H](O)[C@H](c1ccccc1)n1ccc2cccc(Cl)c21` [Example 148, (1S,2R)-1-(7-chloro-1H-indol-1-yl)-3-(methylamino)-1-phenylpropan-2-ol hydrochloride]: the inhibition at 1 µM was 97.8%.

Take `CNC[C@@H](O)[C@H](c1ccccc1)n1cc(C(C)C)c2ccccc21` [Example 154, (1S,2R)-1-(3-isopropyl-1H-indol-1-yl)-3-(methylamino)-1-phenylpropan-2-ol hydrochloride]: the inhibition at 1 µM is 96.1%.

For the compound `CNC[C@@H](O)[C@H](c1cccc(F)c1)n1cc(C(C)C)c2ccccc21` [Example 155, (1S,2R)-1-(3-fluorophenyl)-1-(3-isopropyl-1H-indol-1-yl)-3-(methylamino)propan-2-ol hydrochloride], the inhibition at 1 µM was determined as 98.9%.

As for `CNC[C@@H](O)[C@H](c1cc(F)cc(F)c1)n1ccc2ccccc21` [Example 157, (1S,2R)-1-(3,5-difluorophenyl)-1-(1H-indol-1-yl)-3-(methylamino)propan-2-ol hydrochloride], the inhibition at 1 µM worked out at 99.6%.

As to `CNC[C@@H](O)[C@H](c1cc(F)cc(F)c1)N1CCc2ccccc21` [Example 158, (1S,2R)-1-(3,5-difluorophenyl)-1-(2,3-dihydro-1H-indol-1-yl)-3-(methylamino)propan-2-ol hydrochloride], the inhibition at 1 µM amounted to 99.6%.

Turning to `NCC[C@@H](O)[C@H](c1cccc(F)c1)n1ccc2ccccc21` [Example 159, (1S,2R)-4-amino-1-(3-fluorophenyl)-1-(1H-indol-1-yl)butan-2-ol hydrochloride], the inhibition at 1 µM is 93.8%.

As for `CNC[C@@H](O)[C@H](c1cccc(F)c1)n1cc(-c2ccc(OC)cc2)c2ccccc21` [Example 169, (1S,2R)-1-(3-fluorophenyl)-1-[3-(4-methoxyphenyl)-1H-indol-1-yl]-3-(methylamino)propan-2-ol hydrochloride], the inhibition at 1 µM stood at 72%.

For the compound `CNC[C@@H](O)[C@H](c1cccc(F)c1)n1cc(-c2ccc(C)cc2)c2ccccc21` [Example 170, (1S,2R)-1-(3-fluorophenyl)-3-(methylamino)-1-[3-(4-methylphenyl)-1H-indol-1-yl]propan-2-ol hydrochloride], the inhibition at 1 µM stood at 96.4%.

On to `CNC[C@@H](O)[C@H](c1cccc(F)c1)n1cc(-c2ccc(C(C)(C)C)cc2)c2ccccc21` [Example 171, (1S,2R)-1-[3-(4-tert-butylphenyl)-1H-indol-1-yl]-1-(3-fluorophenyl)-3-(methylamino)propan-2-ol hydrochloride], for which the inhibition at 1 µM came out at 98.3%.

In the case of `CNC[C@@H](O)[C@H](c1cccc(F)c1)n1cc(-c2cccc(OC)c2)c2ccccc21` [Example 172, (1S,2R)-1-(3-fluorophenyl)-1-[3-(3-methoxyphenyl)-1H-indol-1-yl]-3-(methylamino)propan-2-ol hydrochloride], the inhibition at 1 µM amounted to 88%.
